# Experimental data as given in patent EP1064284B1, “HYPNOTIC BETA-CARBOLINE DERIVATIVES, PROCESS FOR THEIR PREPARATION AND THEIR USE AS MEDICINAL PRODUCTS” (priority 1998, dated 1999).
# “Also recorded” adds a separate entry of the source. Where two headings read alike, the source gives them in different places.
# Assays:
# [1] = Absolute oral bioavailability (oral/IV) in Beagle dogs; format: in vivo
# [2] = Stability in acidic medium (hydrolysis of cycle A in pH buffers, HPLC); format: physicochemical; details: for Hydrolysis rate (%) pH=1: pH=1 buffer; for Hydrolysis rate (%) pH=1 / Hydrolysis rate (%) pH=2 / Hydrolysis rate (%) pH=3 / Hydrolysis rate (%) pH=7 (reference): 30 µM in 5 ml, stirred 15 minutes at 37°C; for Hydrolysis rate (%) pH=2: pH=2 buffer; for Hydrolysis rate (%) pH=3: pH=3 buffer; for Hydrolysis rate (%) pH=7 (reference): pH=7 (reference) buffer
# Experimental: In order to study the influence of R8 group on the stability of cycle A when comparing compounds EXAMPLE A and EXAMPLE B (R8 = hydrogen atom) to compounds of Example 1, Example 4, Example 7, Example 8 and Example 11, 30 µM of each of these compounds were dissolved into 5 ml of pH=1 or pH=2 or pH=3 or pH=7 (reference) buffer. Solutions were stirred for 15 minutes at 37°C. Subsequent measurements of compounds amounts non hydrolyzed were measured using a high performance liquid chromatography method. [drawing 18] Table I :
# Compounds n°1, 4, 7, 8 and 11 are quite stable from pH=2, since less than 27 per cent of these compounds are hydrolysed at pH≥2.
# Beagle dogs = experiment: Hypnotic activity: effects on wakefulness / sleep states in Beagle dogs (EEG/EMG/EOG polygraph); format: in vivo; details: for Mean (± S.D.) duration of stages in 8 dogs (minutes) REM / Mean (± S.D.) latencies after administration (minutes) REM / Mean (± S.D.) duration of stages in 8 dogs (minutes) Drowsy / Mean (± S.D.) duration of stages in 8 dogs (minutes) SWS / Mean (± S.D.) duration of stages in 8 dogs (minutes) Sleep / Mean (± S.D.) duration of stages in 8 dogs (minutes) Wake / Mean (± S.D.) latencies after administration (minutes) Drowsy / Mean (± S.D.) latencies after administration (minutes) SWS: 120 minutes observation; for hypnotic effect in Beagle dogs (in words): oral
# Experimental: Beagle dogs are kept in a metal cage, connected to 2 Schwartzer ED 24 Polygraph equipped with BRAINLAB® software, through a flexible cable. Test and control products are administered via the oral or intravenous routes by means of gastric tubes. Records are scored in 30 seconds epochs for active wake, drowsy, slow wave sleep (light sleep + deep sleep) and REM sleep. These criteria are according to SHELTON et al.( in SHELTON J., NISHINO S., VAUGHT J., DEMENT W.C. and MIGNOT E. Comparative effects of modafinil and amphetamine on daytime sleepiness and cataplexy of narcoleptic dogs. Sleep 19(1); 29-38, 1996.), based upon frequency and amplitude patterns of EEG cortical tracing (fronto-frontal), EMG (upper neck muscles) and EOG (bilateral). Behaviour is also continuously monitored for each observation period of 120 minutes. Prior acclimatisation of the dogs take 5 days; and, to mimic similar stress caused by gastric tubing, a mixture water/PEG (50/50; V/V) was administered orally together with intravenous boluses. • Wake : includes all episodes with low voltage mixed frequency tracing in which the EMG is not inhibited. […] Synchronous waves at 4 - 7 Hz and 50 - 100 µV appear on a background of low voltage fast-wave activity. […] EEG patterns are of higher amplitude than in the previous stage and sleep spindles ( 10 - 14 Hz) and / or K complexes must be present in light sleep, as EOG show slow eye movements or no movement. Deep sleep is scored when slow delta waves (< 4 Hz) constitute 20 p. cent of an epoch or more during deep sleep. • REM : rapid eye movement sleep is scored when dogs lay down, eyes closed with intermittent apparent fast muscle twitches. A low voltage mixed frequency EEG tracing is observed together with rapid eye movements and a drop in EMG activity.
# Repartition and duration of wakefulness / sleep states in Beagle dogs have been measured after oral (and intravenous route for compoundof EXAMPLE 1) administrations of Placebo (vehicle = 10 ml of mixture ethanol / PEG 400 / water; 10 / 40 /50; V/V/V) compounds of Example 1, Example 4 and Example 7.
# Results are presented in Tables II and III as Durations and Latencies of each stage.
# [3] = dog, in vivo, Beagle dogs, fasting conditions, oral relative to intravenous route, read-out: Absolute bioavailability oral/IV in Beagle dogs (fasting conditions) 1 < gastric pH < 2
compound,measurement,setting,value
"COc1ccc2[nH]c3c(c2c1)CCN1C(=O)CCC=C31 [EXAMPLE A, reference compound]",bioavailability,[1]; [3],< 1%
same,hydrolysis between pH=1 and pH=3 (in words),[2],totally hydrolyzed
same,Hydrolysis rate (%) pH=1,[2],100%
same,Hydrolysis rate (%) pH=2,[2],100%
same,Hydrolysis rate (%) pH=3,[2],100%
same,Hydrolysis rate (%) pH=7 (reference),[2],0%
"COc1ccc2[nH]c3c(c2c1)CCN1C(=O)CCCC31 (stereo not shown) [EXAMPLE B, reference compound]",Absolute bioavailability oral/IV in Beagle dogs (fasting conditions) 1 < gastric pH < 2,"[1]; Beagle dogs, fasting conditions, oral relative to intravenous route",<5%
same,bioavailability,[1]; [3],< 5%
same,hydrolysis between pH=1 and pH=3 (in words),[2],totally hydrolyzed
same,Hydrolysis rate (%) pH=1,[2],95%
same,Hydrolysis rate (%) pH=2,[2],95%
same,Hydrolysis rate (%) pH=3,[2],90%
same,Hydrolysis rate (%) pH=7 (reference),[2],0%
"CCC1=C2c3[nH]c4ccc(OC)cc4c3CCN2C(=O)CC1 [Example 1, 9-methoxy-1-ethyl-2,3,4,6,7,12-hexahydroindolo [2,3-a] quinolizin-4-one]",Absolute bioavailability oral/IV in Beagle dogs (fasting conditions) 1 < gastric pH < 2,"[1]; beagle, dog, in vivo",>35%
same,bioavailability,"[1]; beagle, dog, in vivo",> 35%
same,Mean (± S.D.) duration of stages in 8 dogs (minutes) REM,Beagle dogs; 2.5 µmol/Kg IV,3.8 (3.9) minutes
same,Mean (± S.D.) latencies after administration (minutes) REM,Beagle dogs; 2.5 µmol/Kg IV,79.9 (25.4) minutes
same,Mean (± S.D.) duration of stages in 8 dogs (minutes) REM,Beagle dogs; 2.5 µmol/Kg oral,3.3 (3.4) minutes
same,Mean (± S.D.) latencies after administration (minutes) REM,Beagle dogs; 2.5 µmol/Kg oral,82.9 (32.8) minutes
same,Mean (± S.D.) duration of stages in 8 dogs (minutes) REM,"Beagle dogs; 5 µmol/Kg oral, Table II",3.1 (3.7) minutes
same,Mean (± S.D.) latencies after administration (minutes) REM,"Beagle dogs; 5 µmol/Kg oral, Table II",79.3 (33.3) minutes
same,Mean (± S.D.) duration of stages in 8 dogs (minutes) REM,"Beagle dogs; 10 µmol/Kg oral, Table II",2.4 (3.5) minutes
same,Mean (± S.D.) latencies after administration (minutes) REM,"Beagle dogs; 10 µmol/Kg oral, Table II",101.9 (27.3) minutes
same,hypnotic effect in Beagle dogs (in words),Beagle dogs,significant hypnotic effect; also recorded: potent hypnotic activity
same,Hydrolysis rate (%) pH=1,[2],79.5%
same,Hydrolysis rate (%) pH=2,[2],14.5%
same,Hydrolysis rate (%) pH=3,[2],8.7%
same,Hydrolysis rate (%) pH=7 (reference),[2],0%
same,per cent of compounds hydrolysed at pH≥2,[2],less than 27 per cent
"COc1ccc2[nH]c3c(c2c1)CCN1C(=O)CCC(c2ccccc2)=C31 [Example 4, 9-methoxy-1-phenyl-2,3,4,6,7,12-hexahydroindolo[2,3-a] quinolizin-4-one]",Absolute bioavailability oral/IV in Beagle dogs (fasting conditions) 1 < gastric pH < 2,"[1]; beagle, dog, in vivo",>20%
same,bioavailability,"[1]; beagle, dog, in vivo",> 20%
same,Mean (± S.D.) duration of stages in 8 dogs (minutes) Drowsy,"Beagle dogs; 10 µmol/Kg oral, Table III",10.4 (3.9) minutes
same,Mean (± S.D.) duration of stages in 8 dogs (minutes) REM,"Beagle dogs; 10 µmol/Kg oral, Table III",4.4 (4.5) minutes
same,Mean (± S.D.) duration of stages in 8 dogs (minutes) SWS,"Beagle dogs; 10 µmol/Kg oral, Table III",31.5 (17.6) minutes
same,Mean (± S.D.) duration of stages in 8 dogs (minutes) Sleep,"Beagle dogs; 10 µmol/Kg oral, Table III",46.3 (21.3) minutes
same,Mean (± S.D.) duration of stages in 8 dogs (minutes) Wake,"Beagle dogs; 10 µmol/Kg oral, Table III",73.8 (21.3) minutes
same,Mean (± S.D.) latencies after administration (minutes) Drowsy,"Beagle dogs; 10 µmol/Kg oral, Table III",50.4 (19.8) minutes
same,Mean (± S.D.) latencies after administration (minutes) REM,"Beagle dogs; 10 µmol/Kg oral, Table III",93.1 (26.3) minutes
same,Mean (± S.D.) latencies after administration (minutes) SWS,"Beagle dogs; 10 µmol/Kg oral, Table III",58.1 (27.0) minutes
same,hypnotic effect in Beagle dogs (in words),Beagle dogs,significant hypnotic effect; also recorded: potent hypnotic activity
same,Hydrolysis rate (%) pH=1,[2],0%
same,Hydrolysis rate (%) pH=2,[2],0%
same,Hydrolysis rate (%) pH=3,[2],0%
same,Hydrolysis rate (%) pH=7 (reference),[2],0%
same,per cent of compounds hydrolysed at pH≥2,[2],less than 27 per cent
"CCC1=C2c3[nH]c4ccc(OC)cc4c3CCN2C(=S)CC1 [Example 7, 9-methoxy-1-ethyl-2,3,4,6,7,12-hexahydroindolo[2,3-a] quinolizine-4-thione]",Mean (± S.D.) duration of stages in 8 dogs (minutes) Drowsy,"Beagle dogs; 5.0 µmol/Kg oral, Table III",13.0 (8.6) minutes
same,Mean (± S.D.) duration of stages in 8 dogs (minutes) REM,"Beagle dogs; 5.0 µmol/Kg oral, Table III",4.4 (6.1) minutes
same,Mean (± S.D.) duration of stages in 8 dogs (minutes) SWS,"Beagle dogs; 5.0 µmol/Kg oral, Table III",18.9 (14.7) minutes
same,Mean (± S.D.) duration of stages in 8 dogs (minutes) Sleep,"Beagle dogs; 5.0 µmol/Kg oral, Table III",35.1 (25.8) minutes
same,Mean (± S.D.) duration of stages in 8 dogs (minutes) Wake,"Beagle dogs; 5.0 µmol/Kg oral, Table III",83.7 (25.1) minutes
same,Mean (± S.D.) latencies after administration (minutes) Drowsy,"Beagle dogs; 5.0 µmol/Kg oral, Table III",59.0 (20.0) minutes
same,Mean (± S.D.) latencies after administration (minutes) REM,"Beagle dogs; 5.0 µmol/Kg oral, Table III",91.1 (28.1) minutes
same,Mean (± S.D.) latencies after administration (minutes) SWS,"Beagle dogs; 5.0 µmol/Kg oral, Table III",74.1 (26.3) minutes
same,hypnotic effect in Beagle dogs (in words),Beagle dogs,significant hypnotic effect; also recorded: potent hypnotic activity
same,Hydrolysis rate (%) pH=1,[2],17.0%
same,Hydrolysis rate (%) pH=2,[2],13.0%
same,Hydrolysis rate (%) pH=3,[2],5.4%
same,Hydrolysis rate (%) pH=7 (reference),[2],0%
same,per cent of compounds hydrolysed at pH≥2,[2],less than 27 per cent
"CCC1CCC(=O)N2CCc3c([nH]c4ccc(OC)cc34)C12 (stereo not shown) [Example 8, 9-methoxy-1-ethyl-1,2,3,4,6,7,12,12b-octahydroindolo [2,3-a] quinolizin-4-one]",bioavailability,"[1]; beagle, dog, in vivo",100%
same,Hydrolysis rate (%) pH=1,[2],0%
same,Hydrolysis rate (%) pH=2,[2],0%
same,Hydrolysis rate (%) pH=3,[2],0%
same,Hydrolysis rate (%) pH=7 (reference),[2],0%
same,per cent of compounds hydrolysed at pH≥2,[2],less than 27 per cent
"COc1ccc2[nH]c3c(c2c1)CCN1C(=S)CCC(c2ccccc2)=C31 [Example 11, 9-methoxy-1-phenyl-2,3,4,6,7,12-hexahydroindolo [2,3-a] [beta]quinolizin 4-thione]",Hydrolysis rate (%) pH=1,[2],26.0%
same,Hydrolysis rate (%) pH=2,[2],27.0%
same,Hydrolysis rate (%) pH=3,[2],30.0%
same,Hydrolysis rate (%) pH=7 (reference),[2],0%
same,per cent of compounds hydrolysed at pH≥2,[2],less than 27 per cent
